Experimental data from the supplement of paper PMC8960247.
± gives the standard error.

tested on: 621-103 (TSC2-rescued); experiment: relative viability vs DMSO; higher = less cytotoxic; conditions: 0.0001 µM; serum: 10% FBS; 72 h
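Also: immortalized renal angiomyolipoma cells stably carrying empty vector or TSC2, dosed in 384-well plates in DMEM, viability normalized to vehicle-treated wells within each plate.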

Row | SMILES | relative viability [%]
1 | C=CC(=O)N1CCC[C@@H](n2nc(-c3ccc(Oc4ccccc4)cc3)c3c(N)ncnc32)C1 | 99.6 ± 3.6
2 | CC(=O)c1c(C)c2cnc(Nc3ccc(N4CCNCC4)cn3)nc2n(C2CCCC2)c1=O | 102.3 ± 0.35
3 | CC(C)(C(=O)NCC(F)(F)C(F)(F)F)C(=O)N[C@@H]1C(=O)Nc2ccccc2-c2ccccc21 | 102.1 ± 0.81
4 | CC(C)(C)Cn1c(N)nc2ccc(-c3[nH]c(C(C)(C)C)nc3-c3ccc(F)cc3)nc21 | 94.2 ± 2.7
5 | CC(C)CC(=O)Nc1n[nH]c2c1CN(C(=O)C1CCN(C)CC1)C2(C)C | 100.3 ± 0.33
6 | CC(C)c1cc(-c2ccc(F)c3ccccc23)nc(N)n1 | 96.2 ± 4.6
7 | CC1(C)C(=O)N(CCN2CCC(C(=O)c3ccc(F)cc3)CC2)c2ccccc21 | 101 ± 2.5
8 | CC1(C)CC(=O)c2c(C(F)(F)F)nn(-c3ccc(C(N)=O)c(N[C@H]4CC[C@H](OC(=O)CN)CC4)c3)c2C1 | 108 ± 4.1
9 | CC1=C(C(=O)Nc2cc3cn[nH]c3cc2F)C(c2ccc(C(F)(F)F)cc2)CC(=O)N1 (stereo not drawn) | 99 ± 0.99
10 | CN(C)Cc1ccc(-c2nc3cccc4c3n2CCNC4=O)cc1 | 103.8 ± 0.6
11 | CN(c1ncccc1CNc1nc(Nc2ccc3c(c2)CC(=O)N3)ncc1C(F)(F)F)S(C)(=O)=O | 106 ± 4.2
12 | CN1CCN(c2ccc([N+](=O)[O-])c3no[n+]([O-])c23)CC1 | 75 ± 4.3
13 | CNC(=O)c1ccc(C)c(-n2c(C)cc(OCc3ccc(F)cc3F)c(Br)c2=O)c1 | 102 ± 4.2
14 | CNCc1ccc(-c2[nH]c3cc(F)cc4c3c2CCNC4=O)cc1 | 104 ± 1.2
15 | COC(=O)N1CCN(Cc2cccc(NC(=O)Nc3ccc(C)nc3)c2F)CC1 | 103 ± 5.3
16 | COc1cc(Nc2ncc(F)c(Nc3ccc4c(n3)N(COP(=O)(O)O)C(=O)C(C)(C)O4)n2)cc(OC)c1OC | 103 ± 1.3
17 | COc1cc(OC)c(/C=C/S(=O)(=O)Cc2ccc(OC)c(NCC(=O)O)c2)c(OC)c1 | 100.5 ± 0.4
18 | COc1cc(OC)c(NC(=O)Nc2cc(C)on2)cc1Cl | 113 ± 2.2
19 | COc1cc2ncnc(Nc3cccc(Br)c3)c2cc1OC | 102 ± 1.5
20 | COc1ccc(-c2cc3c(C)nc(N)nc3n([C@H]3CC[C@H](OCCO)CC3)c2=O)cn1 | 92.8 ± 1.8
21 | COc1ccc(-c2ccc3c(N4CCOCC4)nc(N4C[C@@H](C)O[C@@H](C)C4)nc3n2)cc1CO | 99.9 ± 3

Row | SMILES | relative viability [%]
22 | COc1cccc(-c2cc(=O)c3ccccc3o2)c1N | 100 ± 2.6
23 | COc1cccc(Nc2c(C(N)=O)cnc3c(C)cc(S(=O)(=O)c4cccc(C(=O)N(C)C)c4)cc23)c1 | 104 ± 3.4
24 | COc1ncc(-c2ccc3nccc(-c4ccnnc4)c3c2)cc1NS(=O)(=O)c1ccc(F)cc1F | 107 ± 3.9
25 | C[C@@H](Oc1cc(-c2cnn(C3CCNCC3)c2)cnc1N)c1c(Cl)ccc(F)c1Cl | 99.34 ± 0.12
26 | C[C@@H](Oc1cc(-n2cnc3ccc(CN4CCN(C)CC4)cc32)sc1C(N)=O)c1ccccc1C(F)(F)F | 100 ± 1.7
27 | C[C@@H]1CN(CC(=O)Nc2ccc3c(c2)Cc2cccc(-c4cc(=O)cc(N5CCOCC5)o4)c2S3)C[C@H](C)O1 | 79.7 ± 1.1
28 | Cc1ccc(CN2CCNCC2)cc1NC(=O)CNc1ccc(F)c(F)c1 | 113 ± 3.6
29 | Cc1cccc(-c2nn3c(c2-c2ccnc4ccc(C(N)=O)cc24)CCC3)n1 | 102.4 ± 0.59
30 | Cc1ccccc1-n1c(Cn2cnc3c(N)ncnc32)nc2cccc(C)c2c1=O | 100.1 ± 0.63
31 | Cn1cc(-c2ccc3nnc(C(F)(F)c4ccc5ncccc5c4)n3n2)cn1 | 102 ± 1.7
32 | NC1=N[C@@]2(c3cc(NC(=O)c4ccc(F)cn4)ccc3F)COC[C@H]2CS1 | 101 ± 4.3
33 | Nc1nc(Nc2ccc(S(N)(=O)=O)cc2)nn1C(=O)c1c(F)cccc1F | 98.71 ± 0.9
34 | O=C(NOCC(O)CO)c1cc(Br)c(F)c(F)c1Nc1ccc(I)cc1F (stereo not drawn) | 96.8 ± 0.31
35 | O=C(NOC[C@H](O)CO)c1ccc(F)c(F)c1Nc1ccc(I)cc1F | 96.2 ± 1.3
36 | O=C(c1ccc(F)cc1)N1CCC[C@H](c2nc(-c3ccc(F)cc3)no2)C1 | 102 ± 2.5
37 | O=C1NC(=O)/C(=C/c2ccc3nccc(-c4ccncc4)c3c2)S1 | 94.69 ± 0.22
38 | O=c1cc(-c2cccc3c2Sc2ccccc2S3)oc(N2CCOCC2)c1 | 78.3 ± 1.3
39 | O=c1cc(N2CCOCC2)oc2c(-c3ccccc3)cccc12 | 99.7 ± 1.1
40 | OCCn1cc(-c2cnc3nnn(Cc4ccc5ncccc5c4)c3n2)cn1 | 104.7 ± 0.61
41 | Oc1ccc([C@@H]2Oc3ccc(O)cc3[C@@H]3CCC[C@@H]32)cc1 | 106 ± 1.5
42 | c1ccc2c(CCNc3ccc(Nc4ccncc4)cc3)c[nH]c2c1 | 113.5 ± 1

same assay, conditions: 0.001 µM; serum: 10% FBS; 72 h

Row | SMILES | relative viability [%]
43 | C=CC(=O)N1CCC[C@@H](n2nc(-c3ccc(Oc4ccccc4)cc3)c3c(N)ncnc32)C1 | 97.1 ± 1.7
44 | CC(=O)c1c(C)c2cnc(Nc3ccc(N4CCNCC4)cn3)nc2n(C2CCCC2)c1=O | 104.8 ± 0.95
45 | CC(C)(C(=O)NCC(F)(F)C(F)(F)F)C(=O)N[C@@H]1C(=O)Nc2ccccc2-c2ccccc21 | 104 ± 1.3
46 | CC(C)(C)Cn1c(N)nc2ccc(-c3[nH]c(C(C)(C)C)nc3-c3ccc(F)cc3)nc21 | 98.1 ± 2.3
47 | CC(C)CC(=O)Nc1n[nH]c2c1CN(C(=O)C1CCN(C)CC1)C2(C)C | 101 ± 2
48 | CC(C)c1cc(-c2ccc(F)c3ccccc23)nc(N)n1 | 92.2 ± 4.8
49 | CC1(C)C(=O)N(CCN2CCC(C(=O)c3ccc(F)cc3)CC2)c2ccccc21 | 97.9 ± 4.5
50 | CC1(C)CC(=O)c2c(C(F)(F)F)nn(-c3ccc(C(N)=O)c(N[C@H]4CC[C@H](OC(=O)CN)CC4)c3)c2C1 | 111.5 ± 0.33
51 | CC1=C(C(=O)Nc2cc3cn[nH]c3cc2F)C(c2ccc(C(F)(F)F)cc2)CC(=O)N1 (stereo not drawn) | 98.74 ± 0.16
52 | CN(C)Cc1ccc(-c2nc3cccc4c3n2CCNC4=O)cc1 | 101.41 ± 0.034
53 | CN(c1ncccc1CNc1nc(Nc2ccc3c(c2)CC(=O)N3)ncc1C(F)(F)F)S(C)(=O)=O | 94.4 ± 5.1
54 | CN1CCN(c2ccc([N+](=O)[O-])c3no[n+]([O-])c23)CC1 | 82.8 ± 4.1
55 | CNC(=O)c1ccc(C)c(-n2c(C)cc(OCc3ccc(F)cc3F)c(Br)c2=O)c1 | 102 ± 2.3
56 | CNCc1ccc(-c2[nH]c3cc(F)cc4c3c2CCNC4=O)cc1 | 104 ± 1.1
57 | COC(=O)N1CCN(Cc2cccc(NC(=O)Nc3ccc(C)nc3)c2F)CC1 | 111 ± 1.7
58 | COc1cc(Nc2ncc(F)c(Nc3ccc4c(n3)N(COP(=O)(O)O)C(=O)C(C)(C)O4)n2)cc(OC)c1OC | 104.7 ± 0.53
59 | COc1cc(OC)c(/C=C/S(=O)(=O)Cc2ccc(OC)c(NCC(=O)O)c2)c(OC)c1 | 99 ± 1.7
60 | COc1cc(OC)c(NC(=O)Nc2cc(C)on2)cc1Cl | 109 ± 3.5
61 | COc1cc2ncnc(Nc3cccc(Br)c3)c2cc1OC | 102 ± 1.7
62 | COc1ccc(-c2cc3c(C)nc(N)nc3n([C@H]3CC[C@H](OCCO)CC3)c2=O)cn1 | 98.4 ± 2.6
63 | COc1ccc(-c2ccc3c(N4CCOCC4)nc(N4C[C@@H](C)O[C@@H](C)C4)nc3n2)cc1CO | 88.657 ± 0.066
